Ten compounds from ChEMBL document CHEMBL1201862, “PubChem BioAssay data set” (2004) can be followed below.

Structures are written as SMILES. Active and inactive are the calls of the source.

The target of experiment [1] is Protein Wnt-3a (Mus musculus, UniProt P27467). Briefly: Wnt3a-driven reporter signaling inhibition, dose response, selectivity assay for Gli-SUFU antagonist project, Wnt-LIGHT cells, luminescence (AID 651570).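 Also: Wnt-LIGHT reporter cells stimulated with conditioned medium from Wnt3a-producing cells.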 Type of experiment: functional. The note with it: read-out: IC50_Mean.
Sequence of Protein Wnt-3a (P27467 whole entry): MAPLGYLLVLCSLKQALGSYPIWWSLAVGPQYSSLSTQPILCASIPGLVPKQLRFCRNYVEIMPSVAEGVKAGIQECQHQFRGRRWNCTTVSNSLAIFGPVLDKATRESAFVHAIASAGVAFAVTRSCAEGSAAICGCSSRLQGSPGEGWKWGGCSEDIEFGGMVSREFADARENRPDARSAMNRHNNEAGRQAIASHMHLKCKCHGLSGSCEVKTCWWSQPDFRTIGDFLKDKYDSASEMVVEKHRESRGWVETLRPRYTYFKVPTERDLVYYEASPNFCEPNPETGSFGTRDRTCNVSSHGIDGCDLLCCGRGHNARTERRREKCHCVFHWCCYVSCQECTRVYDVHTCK
For experiment [2], the target named is ADP-ribosylation factor GTPase-activating protein 1 (Rattus norvegicus, UniProt Q62848). In words: Fluorescence polarization-based biochemical high throughput dose response screening assay to identify inhibitors of ADP-ribosylation factor GTPase activating protein 1 (ARFGAP1). Type of experiment: functional. In general terms: In fluorescence polarisation assays a small probe gives low polarisation when free and higher when bound to something large.
Sequence of ADP-ribosylation factor GTPase-activating protein 1 (Q62848 whole entry): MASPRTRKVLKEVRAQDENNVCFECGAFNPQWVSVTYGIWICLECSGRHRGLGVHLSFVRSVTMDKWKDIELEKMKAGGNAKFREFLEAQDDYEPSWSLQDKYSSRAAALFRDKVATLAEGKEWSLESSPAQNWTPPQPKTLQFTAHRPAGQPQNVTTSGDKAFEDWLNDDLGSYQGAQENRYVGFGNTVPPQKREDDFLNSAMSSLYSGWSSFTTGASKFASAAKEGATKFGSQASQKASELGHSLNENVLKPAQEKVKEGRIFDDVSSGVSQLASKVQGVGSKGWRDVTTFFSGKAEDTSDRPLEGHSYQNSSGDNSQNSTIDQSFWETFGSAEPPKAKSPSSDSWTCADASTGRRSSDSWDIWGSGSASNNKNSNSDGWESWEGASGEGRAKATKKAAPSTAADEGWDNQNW

The target in experiment [3] is T1, Sentrin-specific protease 1 (Homo sapiens, UniProt Q9P0U3).
T1 sequence (Q9P0U3 whole entry): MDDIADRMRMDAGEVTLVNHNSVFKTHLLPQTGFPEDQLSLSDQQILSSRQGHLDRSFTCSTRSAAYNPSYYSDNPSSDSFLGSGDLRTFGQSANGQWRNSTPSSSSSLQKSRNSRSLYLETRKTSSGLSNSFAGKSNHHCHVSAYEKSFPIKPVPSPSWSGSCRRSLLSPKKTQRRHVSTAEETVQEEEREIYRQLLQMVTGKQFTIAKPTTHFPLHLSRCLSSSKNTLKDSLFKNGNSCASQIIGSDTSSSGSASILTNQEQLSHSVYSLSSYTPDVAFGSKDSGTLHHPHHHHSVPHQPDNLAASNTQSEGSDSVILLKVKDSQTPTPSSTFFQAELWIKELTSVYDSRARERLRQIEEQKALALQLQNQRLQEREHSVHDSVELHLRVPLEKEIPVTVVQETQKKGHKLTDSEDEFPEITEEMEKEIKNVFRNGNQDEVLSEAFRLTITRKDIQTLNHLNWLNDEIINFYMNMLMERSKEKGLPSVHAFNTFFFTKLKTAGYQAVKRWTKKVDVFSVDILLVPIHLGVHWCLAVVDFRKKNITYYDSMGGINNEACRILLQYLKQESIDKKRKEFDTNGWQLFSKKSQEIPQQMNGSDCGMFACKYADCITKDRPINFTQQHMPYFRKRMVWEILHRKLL
Briefly: potency of human SENP1 inhibitors, dose response, biochemical, kinetic FRET (AID 651697). Type of experiment: functional. The settings on record: read-out: IC50_Mean.

The target of experiment [4] is T1, Sentrin-specific protease 1. In words: Dose response confirmation of small molecule inhibitors of the catalytic domain of the SUMO protease, SENP1 in a FRET assay. Type of experiment: functional. The settings on record: read-out: IC50_Mean.
The target in experiment [5] is T2, Rac GTPase-activating protein 1 (Homo sapiens, UniProt Q9H0H5).
T2 sequence (Q9H0H5 whole entry): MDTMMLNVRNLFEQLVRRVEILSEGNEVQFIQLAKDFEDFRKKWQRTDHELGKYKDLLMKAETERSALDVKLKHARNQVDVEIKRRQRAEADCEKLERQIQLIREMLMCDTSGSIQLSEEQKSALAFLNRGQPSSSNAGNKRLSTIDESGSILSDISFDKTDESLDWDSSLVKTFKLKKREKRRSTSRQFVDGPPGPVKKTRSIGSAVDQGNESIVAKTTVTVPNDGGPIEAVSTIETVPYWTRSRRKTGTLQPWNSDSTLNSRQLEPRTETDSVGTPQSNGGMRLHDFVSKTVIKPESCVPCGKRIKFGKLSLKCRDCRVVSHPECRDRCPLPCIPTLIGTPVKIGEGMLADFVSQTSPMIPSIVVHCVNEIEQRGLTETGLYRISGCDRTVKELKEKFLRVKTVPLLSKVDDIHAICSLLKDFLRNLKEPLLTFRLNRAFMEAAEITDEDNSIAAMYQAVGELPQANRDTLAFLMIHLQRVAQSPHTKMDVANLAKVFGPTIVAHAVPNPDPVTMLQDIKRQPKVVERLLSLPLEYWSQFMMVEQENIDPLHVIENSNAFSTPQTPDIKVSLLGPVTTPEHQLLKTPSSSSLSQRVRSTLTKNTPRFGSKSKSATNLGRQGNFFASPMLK
Briefly: MgcRacGAP GTPase-activating activity inhibitors, confirmation, biochemical, ADP Hunter fluorescence, primary and confirmatory (AID 624330). Type of experiment: functional.

For experiment [6], the system named is CHO-K1. In words: Counterscreen for antagonists of the orexin 1 receptor (OX1R; HCRTR1): Homogeneous time resolved fluorescence (HTRF)-based cell-based dose response assay to identify antagonists of the parental CHO-K1 cell line. [Related pubchem assays (depositor defined):AID434989, AID435008, AID463079, AID485270, AID492963, AID492964, AID492965, AID493232, AID504699, AID504701]. Type of experiment: functional. The settings on record: Cricetulus griseus. (In general: Counterscreens check selectivity or assay interference.);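 also: potency for inhibition of ATP-stimulated IP1 production as antagonists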

Experiment [7] is described as follows: Luminescence Cell-Based Dose Retest to Confirm Inhibitors of Cancer Stem Cells. [Related pubchem assays (depositor defined):AID2717, AID2721]. Type of experiment: functional. The note with it: Homo sapiens.
Experiment [8] in a line: Counterscreen for antagonists of the orexin 1 receptor (OX1R; HCRTR1): Fluorescence-based cell-based high throughput dose response assay to identify antagonists of the parental CHO cell line. [Related pubchem assays (depositor defined):AID434989, AID435008, AID463079, AID485270, AID492963, AID492964, AID492965, AID493232, AID504699, AID504701]. Type of experiment: functional.

For experiment [9], the target named is T3, Orexin/Hypocretin receptor type 1 (Homo sapiens, UniProt O43613).
T3 sequence (O43613 whole entry): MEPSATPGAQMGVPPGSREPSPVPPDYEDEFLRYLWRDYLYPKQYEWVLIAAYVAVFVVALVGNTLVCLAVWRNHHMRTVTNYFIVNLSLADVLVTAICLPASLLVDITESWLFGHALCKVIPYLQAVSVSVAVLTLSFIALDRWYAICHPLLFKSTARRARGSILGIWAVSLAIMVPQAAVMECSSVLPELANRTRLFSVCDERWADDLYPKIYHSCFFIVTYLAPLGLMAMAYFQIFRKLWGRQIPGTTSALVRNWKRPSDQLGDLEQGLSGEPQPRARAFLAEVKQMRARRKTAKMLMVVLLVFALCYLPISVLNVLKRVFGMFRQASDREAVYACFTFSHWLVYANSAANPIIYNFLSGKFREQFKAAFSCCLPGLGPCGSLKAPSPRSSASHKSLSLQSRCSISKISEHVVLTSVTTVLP
Briefly: Homogeneous Time Resolved Fluorescence (HTRF)-based cell-based high throughput dose response assay for antagonists of the orexin 1 receptor (OX1R; HCRTR1). [Related pubchem assays (depositor defined):AID434989, AID435008, AID463079, AID485270, AID492963, AID492964, AID492965, AID493232, AID504717, AID504718]. Type of experiment: functional.

The target of experiment [10] is T3, Orexin/Hypocretin receptor type 1. In words: Fluorescence-based cell-based high throughput dose response assay for antagonists of the orexin 1 receptor (OX1R; HCRTR1). [Related pubchem assays (depositor defined):AID434989, AID435008, AID463079, AID485270, AID492963, AID492964, AID492965, AID493232, AID504717, AID504718]. Type of experiment: functional.
Experiment [11] has as its target T4, Orexin receptor type 2 (Homo sapiens, UniProt O43614).
T4 sequence (O43614 whole entry): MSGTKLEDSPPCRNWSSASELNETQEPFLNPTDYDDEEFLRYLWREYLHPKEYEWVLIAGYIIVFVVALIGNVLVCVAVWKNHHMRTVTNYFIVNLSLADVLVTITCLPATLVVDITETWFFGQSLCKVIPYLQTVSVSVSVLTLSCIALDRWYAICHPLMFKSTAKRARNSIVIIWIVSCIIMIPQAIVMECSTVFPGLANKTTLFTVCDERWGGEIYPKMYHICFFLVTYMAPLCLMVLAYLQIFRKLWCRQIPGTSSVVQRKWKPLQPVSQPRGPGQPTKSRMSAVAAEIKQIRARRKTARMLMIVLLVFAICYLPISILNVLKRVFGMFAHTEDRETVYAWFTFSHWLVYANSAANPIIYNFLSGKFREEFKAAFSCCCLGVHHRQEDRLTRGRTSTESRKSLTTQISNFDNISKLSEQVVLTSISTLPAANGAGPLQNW
Briefly: Counterscreen assay for antagonists of the orexin 1 receptor (OX1R; HCRTR1): Fluorescence-based cell-based dose response assay for antagonists of the orexin 2 receptor (OX2R; HCRTR2), run by assay provider. Type of experiment: functional.

The target in experiment [12] is T4, Orexin receptor type 2. In words: Counterscreen assay for antagonists of the orexin 1 receptor (OX1R; HCRTR1): Homogeneous Time Resolved Fluorescence (HTRF)-based cell-based dose response assay for antagonists of the orexin 2 receptor (OX2R; HCRTR2), run by assay provider. Type of experiment: functional.
Experiment [13] concerns the target T5, Methionyl-tRNA synthetase, putative (Trypanosoma brucei brucei, UniProt Q38C91).
T5 sequence (Q38C91 whole entry): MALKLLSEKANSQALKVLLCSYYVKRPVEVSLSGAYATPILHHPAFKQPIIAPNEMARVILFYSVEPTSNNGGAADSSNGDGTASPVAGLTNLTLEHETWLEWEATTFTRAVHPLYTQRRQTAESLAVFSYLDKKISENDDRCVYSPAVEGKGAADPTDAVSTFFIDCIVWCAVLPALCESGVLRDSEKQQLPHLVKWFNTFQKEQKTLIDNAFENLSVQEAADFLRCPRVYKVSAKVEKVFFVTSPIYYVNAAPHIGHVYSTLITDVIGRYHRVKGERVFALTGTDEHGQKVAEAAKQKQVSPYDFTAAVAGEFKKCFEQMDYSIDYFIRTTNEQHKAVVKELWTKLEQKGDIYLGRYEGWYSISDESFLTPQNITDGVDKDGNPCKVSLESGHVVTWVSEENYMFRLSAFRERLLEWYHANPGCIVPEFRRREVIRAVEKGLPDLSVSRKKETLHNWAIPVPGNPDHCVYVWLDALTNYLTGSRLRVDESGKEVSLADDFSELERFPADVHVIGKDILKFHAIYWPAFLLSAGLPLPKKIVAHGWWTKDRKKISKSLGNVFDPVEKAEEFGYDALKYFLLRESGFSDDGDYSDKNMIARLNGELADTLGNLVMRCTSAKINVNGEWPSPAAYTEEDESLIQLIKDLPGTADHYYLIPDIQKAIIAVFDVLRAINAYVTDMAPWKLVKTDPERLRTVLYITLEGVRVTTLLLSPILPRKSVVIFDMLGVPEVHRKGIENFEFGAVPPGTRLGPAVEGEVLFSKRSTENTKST
Type of experiment: functional, Trypanosoma brucei brucei strain 927/4 GUTat10.1.

Experiment [14] can be described thus: Counterscreen for inhibitors of Trypanosoma brucei methionyl tRNA synthetase (MetRS): Luminescence-based cell-based high throughput dose response assay to identify compounds that are cytotoxic to Jurkat human T lymphocyte cells. Type of experiment: functional.
Experiment [15] concerns the target T5, Methionyl-tRNA synthetase, putative. Type of experiment: functional, Trypanosoma brucei brucei strain 927/4 GUTat10.1. This is another data set of the same source.
In experiment [16] the target is Nuclear receptor subfamily 5 group A member 2 (Homo sapiens, UniProt O00482). Type of experiment: functional, cell-based.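 Also: HEK293T cells transfected with LRH-1 and a StAR promoter luciferase reporter; potency for inhibitors that lower LRH-1 driven reporter light.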
Sequence of Nuclear receptor subfamily 5 group A member 2 (O00482 whole entry): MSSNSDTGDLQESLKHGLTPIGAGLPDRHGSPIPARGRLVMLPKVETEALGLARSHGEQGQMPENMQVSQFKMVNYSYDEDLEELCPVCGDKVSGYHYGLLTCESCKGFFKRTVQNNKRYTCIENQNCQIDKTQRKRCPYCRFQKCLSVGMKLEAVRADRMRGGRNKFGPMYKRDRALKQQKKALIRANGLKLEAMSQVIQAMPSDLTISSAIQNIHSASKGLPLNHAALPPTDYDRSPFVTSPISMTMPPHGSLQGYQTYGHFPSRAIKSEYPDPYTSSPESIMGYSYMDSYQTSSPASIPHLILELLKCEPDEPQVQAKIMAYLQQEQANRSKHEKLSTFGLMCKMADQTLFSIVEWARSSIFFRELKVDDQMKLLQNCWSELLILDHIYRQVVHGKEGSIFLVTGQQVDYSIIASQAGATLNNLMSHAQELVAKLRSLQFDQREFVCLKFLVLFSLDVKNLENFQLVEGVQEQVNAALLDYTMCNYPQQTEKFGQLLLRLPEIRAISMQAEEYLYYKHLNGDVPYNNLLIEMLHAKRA
The target in experiment [17] is Steroidogenic factor 1 (Homo sapiens, UniProt Q13285). In words: Counterscreen for inverse agonists of the liver receptor homolog-1 (LRH-1; NR5A2): Luminescence-based cell-based high throughput dose response assay to identify inverse agonists of the Steroidogenic Factor 1 Nuclear Receptor (SF1; NR5A1). Type of experiment: functional.
Sequence of Steroidogenic factor 1 (Q13285 whole entry): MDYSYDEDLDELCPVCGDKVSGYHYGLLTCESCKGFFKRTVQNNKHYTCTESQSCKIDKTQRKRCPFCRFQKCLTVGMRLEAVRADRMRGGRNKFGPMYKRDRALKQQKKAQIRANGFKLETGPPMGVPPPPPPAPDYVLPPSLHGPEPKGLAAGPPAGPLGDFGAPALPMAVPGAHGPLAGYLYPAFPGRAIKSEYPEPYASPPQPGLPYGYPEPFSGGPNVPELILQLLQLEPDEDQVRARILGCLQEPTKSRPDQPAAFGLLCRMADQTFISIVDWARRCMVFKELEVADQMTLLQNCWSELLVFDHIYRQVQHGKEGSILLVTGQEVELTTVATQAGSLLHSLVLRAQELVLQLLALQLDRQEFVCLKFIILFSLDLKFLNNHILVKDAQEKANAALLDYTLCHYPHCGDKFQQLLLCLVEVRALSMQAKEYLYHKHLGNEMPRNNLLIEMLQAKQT
Experiment [18] is described as follows: StAR promoter reporter inhibition counter-screen, dose response, counter-screen for LRH-1 inverse agonist project, cell-based, luminescence, luciferase reporter (AID 651969). Type of experiment: functional.
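For AC50 in this document: cells exposed to compound for roughly 70 hours or longer before luminescence read.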

For `Cc1ccc(C)c([N+]2=C3CCCCN3C(O)(c3cccs3)C2)c1` (configuration not stated), the IC50 in experiment [1] is 13.2 µM (active).

In the case of `C=CCNc1nc(NCCOC)c2sc(-c3ccccc3)cc2n1`, the IC50 in experiment [2] is 101 µM (inactive).

For the compound `COc1cc(/C=C2\SC(=Nc3c(C)n(C)n(-c4ccccc4)c3=O)NC2=O)ccc1O`, the results for the IC50 in experiment [3], in [4] and in [5] were 15.5 µM (active), 11.2 µM (active) and 38.7 µM (active), respectively.

As usually defined, the AC50 is the concentration giving half of the maximal activity seen. Take `Cn1c2ccccc2c(=O)c2cc(C#Cc3ccccn3)ccc21`: the IC50 is > 66.2 µM (inactive) in experiment [6]; > 49.7 µM (inactive) in [8]; 0.413 µM (active) in experiment [9]; 3.9 µM (active) in experiment [10]; > 88.8 µM (inactive) in [11]; > 50 µM (inactive) in experiment [12]. Besides, in experiment [7], the AC50 was 9.17 µM (active).

As to `Fc1cccc(Nc2nc3ccccc3n3cnnc23)c1`, the IC50 in experiment [6] is > 66.3 µM (inactive); in experiment [8], > 49.8 µM (inactive); in [9], 2.03 µM (active); in experiment [10], 7.59 µM (active); in experiment [11], > 88.8 µM (inactive); in experiment [12], 2.13 µM (active).

For `CC(=O)c1ccc(N2CCN(c3ccc(C(F)(F)F)cn3)CC2)cc1`, the IC50 in [1] was 24.3 µM (inactive).

On to `C[C@H](O)[C@@H]1CN2CCc3c([nH]c4ccccc34)[C@@H]2C[C@@H]1N(C)C(=O)Nc1cc(Cl)cc(Cl)c1`, for which the IC50 in [13] is 14.9 µM (inactive); in experiment [14], 15.8 µM (inactive); in [15], 8.53 µM (active).

For the compound `CC(C)CC1(C)NC(=O)N(CC(=O)Nc2ccc3c(c2)OCCO3)C1=O` (configuration not stated), the IC50 in experiment [16] is 42.7 µM (inactive); in experiment [17], 7.12 µM (active); in experiment [18] it was 35.9 µM (inactive).

Regarding `Cc1c(C(=O)OCC(=O)NCCN2C(=O)CSC2=O)oc2c1ccc1ccccc12`, the IC50 in experiment [6] was > 66.2 µM (inactive); in [8], > 49.7 µM (inactive); in experiment [9] it was 1.23 µM (active); in [10] it was 6.78 µM (active); in experiment [11] it was > 88.8 µM (inactive); in [12], > 50 µM (inactive).

For `COc1ccc2oc(C(=O)OCC(=O)N3CC(C)CC(C)C3)c(C)c2c1` (configuration not stated), in [2], the IC50 was 44.9 µM (inactive).
